From article PMC10762078, “Role of UPF1-LIN28A interaction during early differentiation of pluripotent stem cells” (Nature Communications, 2024)
Ends that are not written are not given here.

Experiments:
UPF1-LIN28A interaction = assay: GST pull-down of MYC-UPF1 with GST-LIN28A in presence of CPP-conjugated peptide; format: cell-based; details: 293T cells, CPP-peptide 2 μM 12 h, n = 3
Description: For CPP-conjugated peptide delivery, HeLa, 293T, and PA-1 cells were incubated with CPP-conjugated peptides or CPP-FITC at 2 μM in DMEM with 10% FBS for 12 h a day before cell harvest. hPSCs were treated with CPP-conjugated peptides at 10 μM in mTeSR Plus Medium, and the peptide-containing medium was changed every day over 10 days. The ROCK inhibitor (Tocris Bioscience, Y-27632) treated-hPSCs were dissociated into single cells using Accutase (Merck, SCR005) and differentiated into ectoderm, mesoderm, and endoderm using the STEMdiff Trilineage Differentiation Kit ([…] Technologies, 05230) following the manufacturer’s protocol. Differentiated cells treated with CPP-conjugated peptides were analysed at 0, 3, and 5 days for ectoderm and endoderm, and at 0, 3, and 4 days for mesoderm.
Cells were lysed in ice-cold hypotonic buffer (10 mM Tris-Cl pH 7.5, 10 mM NaCl, 10 mM EDTA, 0.5% Triton X 100, Xpert Protease inhibitor cocktail solution, and Xpert Phosphatase inhibitor cocktail solution (GenDEPOT)). […]
Protein samples were loaded for electrophoresis on sodium dodecyl sulphate (SDS) polyacrylamide gels, followed by Coomassie blue staining or transferred to nitrocellulose membranes (Cytiva) for WB. […] The blots were imaged using ChemiDoc XRS+ System (Bio-Rad) and the greyscale intensity values were quantified using Image Lab 3.0 software (Bio-Rad).

His-LIN28A = target: T1, His-LIN28A (Homo sapiens, UniProt Q9H9Z2); assay: SPR kinetic evaluation of peptide binding to immobilised His-LIN28A
T1 construct: purchased LS-bio LS-G637
T1 sequence (Q9H9Z2 1-209): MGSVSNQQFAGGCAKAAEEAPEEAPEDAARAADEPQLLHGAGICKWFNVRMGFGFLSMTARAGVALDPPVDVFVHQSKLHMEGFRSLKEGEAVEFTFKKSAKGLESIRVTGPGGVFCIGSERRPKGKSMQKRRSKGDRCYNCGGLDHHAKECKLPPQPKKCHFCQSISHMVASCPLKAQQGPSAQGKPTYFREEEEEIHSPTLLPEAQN
Description: For ligand immobilisation, the nitrilotriacetic acid (NTA) surface gold sensor chip (icluebio) was activated with 5 mM NiCl2 (Xantec) at a flow rate of 30 μL/min, following equalisation with 1× HBS-T buffer. His-LIN28A (LS-bio, LS-G637) was used as a ligand protein and was applied to a sensor chip at a flow rate of 10 μL/min for 40 min after dilution in 1× HEPES-buffered saline (HBS-T) buffer at a 1/20 ratio. Approximately 1000 resonance units (RU) were bonded to the sensor chip after ligand immobilisation. RU was measured using iMSPR-ProX (icluebio). An indigenous NTA sensor chip was used as a reference channel.
Kinetics assessment was performed for peptides with RU values greater than 5.

[1] = tested on: human fetal neural stem cells (VM-NSCs or CTX-NSCs); assay: H2O2-stressed human fetal neural stem cells: survival and neuronal markers (peer review file); format: cell-based; details: compared with CPP-P1
Source text: 4. In addition to identifying the differentiation markers, what are the effects of LIN28A-UPF1 interactions on the functional differentiation phenotypes?
We observed that the levels of stem cell markers, POU5F1 (OCT4) and NANOG, were reduced when UPF1 and LIN28A interaction was disrupted by the […]
To determine the effects of CPP-P8 during […]
split every 4~6-days. After CPP-P8 treatment, the cell phenotypes treated with CPP-P8 looked more like the spontaneous differentiated cells than the ones treated with CPP-P1 and CPP-P2 (Fig. 6c and Supplementary Fig. 6b in the revised manuscript).
The final experiment to determine the functional phenotypes used treated human fetal neural stem cells (ventral midbrain (VM)-NSCs or cortex (CTX)-NSCs), which was stressed by H2O2, with the peptides (CPP-P1 or P8), and differentiation to neurons was initiated. The immunofluorescence results […]
neuron markers, Tyrosine hydroxylase (TH) and TUJ1 compared with CPP-P1 treatment. We are preparing another manuscript to show the effects of CPP-P8 on neuronal differentiation, we would like […]
We hope our additional experiments have addressed the reviewer’s concern.
Original Manuscript Revised Manuscript
Fig. 1e Supplementary Fig. 6b
(1 picture or pasted object on this page, not shown here)

| Sequence | coimmunoprecipitated MYC-UPF1 with GST-LIN28A (UPF1-LIN28A interaction) | kd (His-LIN28A; His-LIN28A ligand, peptide analyte 30 to 0.95 μM, HBS-T) [s⁻¹] | kon (His-LIN28A; His-LIN28A ligand, peptide analyte 30 to 0.95 μM, HBS-T, read-out: ka) [M⁻¹ s⁻¹] | binding affinity to LIN28A (His-LIN28A; diverse concentrations) | cell survival ([1]; DAPI staining) | dopaminergic neuron markers TH and TUJ1 [1] |
| --- | --- | --- | --- | --- | --- | --- |
| KKKWCRKKKSSADEKRYRALKRTAERELLMNA [CPP-P8, CPP conjugated to P8] | reduced upon CPP-P8 treatment | – | – | – | – | – |
| KKKWCRKKKSSADEKRYRALKRTAERELLMNA [P8] | – | 0.0137 | 2640 | high binding affinity to LIN28A | increased cell survival (DAPI staining) | upregulated dopaminergic |
